According to BindingDB's records for doi:10.7270/Q2Q52N1X (Vanderbilt Screening Center for GPCRs, Ion Channels and …, 2009):

target: T1, Solute carrier family 12 member 5 (Homo sapiens, UniProt Q9H2X9); assay: concentration-response of KCC2 transport modulators – cell-based, HEK293 KCC2, FluoZin-2 fluorescence, dose response (AID 1736); conditions: not given
T1 sequence (Q9H2X9 whole entry): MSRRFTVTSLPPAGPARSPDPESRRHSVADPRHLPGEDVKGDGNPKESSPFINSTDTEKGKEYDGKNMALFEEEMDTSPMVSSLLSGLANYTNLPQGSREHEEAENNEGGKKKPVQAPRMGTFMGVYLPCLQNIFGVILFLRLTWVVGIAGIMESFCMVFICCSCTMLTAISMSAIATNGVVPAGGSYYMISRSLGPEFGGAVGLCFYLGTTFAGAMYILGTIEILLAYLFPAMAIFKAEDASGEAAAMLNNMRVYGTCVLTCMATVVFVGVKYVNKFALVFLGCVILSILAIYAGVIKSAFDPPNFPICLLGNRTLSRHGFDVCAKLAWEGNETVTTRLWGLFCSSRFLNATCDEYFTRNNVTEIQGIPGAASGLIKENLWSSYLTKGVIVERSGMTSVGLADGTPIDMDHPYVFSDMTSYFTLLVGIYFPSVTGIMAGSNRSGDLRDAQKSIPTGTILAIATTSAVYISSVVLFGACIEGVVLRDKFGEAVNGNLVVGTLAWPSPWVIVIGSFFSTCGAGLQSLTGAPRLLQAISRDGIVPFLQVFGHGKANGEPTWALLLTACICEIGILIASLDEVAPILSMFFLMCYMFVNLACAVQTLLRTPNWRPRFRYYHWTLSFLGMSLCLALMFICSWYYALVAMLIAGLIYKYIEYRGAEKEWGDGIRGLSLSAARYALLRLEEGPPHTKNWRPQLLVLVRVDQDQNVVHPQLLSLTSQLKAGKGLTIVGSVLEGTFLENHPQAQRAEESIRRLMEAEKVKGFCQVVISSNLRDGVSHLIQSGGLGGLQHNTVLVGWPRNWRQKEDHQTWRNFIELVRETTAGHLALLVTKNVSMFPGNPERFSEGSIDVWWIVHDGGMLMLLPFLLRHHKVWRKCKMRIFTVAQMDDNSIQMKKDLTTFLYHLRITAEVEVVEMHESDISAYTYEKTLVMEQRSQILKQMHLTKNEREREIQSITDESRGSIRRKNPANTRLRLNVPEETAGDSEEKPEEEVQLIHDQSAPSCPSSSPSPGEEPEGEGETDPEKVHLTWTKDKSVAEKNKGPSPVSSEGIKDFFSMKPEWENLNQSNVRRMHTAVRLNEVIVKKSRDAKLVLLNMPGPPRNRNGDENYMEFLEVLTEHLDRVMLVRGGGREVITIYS

SMILES | EC50 [µM]
CCOC(=O)c1cc2c(ccn2C)n1CC(=O)N1CCC(Cc2ccccc2)CC1 [1-[2-(4-Benzyl-piperidin-1-yl)-2-oxo-ethyl]-4-methyl-1,4-dihydro-pyrrolo[3,2-b]pyrrole-2-carboxylic acid ethyl ester] | 7.58
S=C(NN=Cc1cccc2ccccc12)Nc1cccc(Cl)c1 [1-(3-chlorophenyl)-3-(1-naphthalenylmethylideneamino)thiourea] | 12.7
Cc1ccc(OCCC(=O)OCC(=O)N2c3ccccc3CC2C)cc1 (centres undefined) [3-(4-methylphenoxy)propanoic acid [2-(2-methyl-2,3-dihydroindol-1-yl)-2-oxoethyl] ester] | 4.4
Cc1ccc(/C=C2/Sc3ccccc3N(CC(=O)NCCCOC(C)C)C2=O)cc1 [2-[(2E)-2-[(4-methylphenyl)methylidene]-3-oxidanylidene-1,4-benzothiazin-4-yl]-N-(3-propan-2-yloxypropyl)ethanamide] | 276
Cc1nn2c(nc(O)c3ccccc32)c1C=O [MLS000565386] | 40.9
CS/C(=N\Cc1ccc(F)cc1)NS(=O)(=O)c1cccs1 [3-(4-fluorobenzyl)-2-methyl-1-(2-thienylsulfonyl)isothiourea] | 0.89
N#Cc1nc(Cc2cccc3ccccc23)oc1NCCN1CCOCC1 [5-(2-Morpholin-4-yl-ethylamino)-2-naphthalen-1-ylmethyl-oxazole-4-carbonitrile] | 10.3
NC(=S)NN=C1C(=O)N(Cc2ccc(F)cc2)c2ccccc21 [1-[(Z)-[1-[(4-fluorophenyl)methyl]-2-oxidanylidene-indol-3-ylidene]amino]thiourea] | 38
CC1Cc2ccccc2N1C(=O)CN(C)S(=O)(=O)c1cccc2cccnc12 (centres undefined) [MLS000523063] | 19.5
O=c1[nH]c2ccc(S(=O)(=O)N3CCN(c4ccccc4F)CC3)cc2s1 [6-{[4-(2-fluorophenyl)piperazin-1-yl]sulfonyl}-1,3-benzothiazol-2(3H)-one] | 8.21
O=C(c1ccc(S(=O)(=O)c2cccc(Cl)c2)c([N+](=O)[O-])c1)N1CCN(c2ccccn2)CC1 [1-{4-[(3-chlorophenyl)sulfonyl]-3-nitrobenzoyl}-4-pyridin-2-ylpiperazine] | 3.61
CC(=NNC(=O)c1ccc(Cl)c(Cl)c1)c1ccc(Br)s1 [N-[1-(5-bromo-2-thiophenyl)ethylideneamino]-3,4-dichlorobenzamide] | 0.48
CCCn1c(N)c(C(=O)CSc2nnc(Cc3ccccc3)o2)c(=O)n(C)c1=O [6-amino-3-methyl-5-[1-oxo-2-[[5-(phenylmethyl)-1,3,4-oxadiazol-2-yl]thio]ethyl]-1-propylpyrimidine-2,4-dione] | 0.00011
Cc1ccc(NC(=O)CCCSc2ccccc2)cc1S(=O)(=O)N1CCOCC1 [MLS000761060] | 408
Cc1nn(C)c(C)c1C=C1SC(S)=NC1=O [MLS000324943] | 1.51
O=C(NCCc1c[nH]c2ccccc12)c1cc(S(=O)(=O)N2CCCCC2)ccc1N1CCOCC1 [N-[2-(1H-indol-3-yl)ethyl]-2-morpholin-4-yl-5-piperidin-1-ylsulfonylbenzamide] | 20.1
Cc1cc(NC(=O)CSc2ccc(-c3ccc(F)cc3)nn2)no1 [2-[6-(4-fluorophenyl)pyridazin-3-yl]sulfanyl-N-(5-methyl-1,2-oxazol-3-yl)acetamide] | 0.182
COc1ccccc1NC(=S)NNC1=c2cc(Br)ccc2=NC1=O [MLS000778253] | 0.363
O=C(C1CCN(c2nc3ccc(Br)cc3s2)CC1)N1CCC2(CC1)OCCO2 [8-{[1-(6-bromo-1,3-benzothiazol-2-yl)piperidin-4-yl]carbonyl}-1,4-dioxa-8-azaspiro[4.5]decane] | 7.02
CCC(CC)NC(=O)CSc1nnc(-c2c[nH]c3ccccc23)o1 [MLS001017505] | 334
Oc1ccccc1CN=Nc1nc2ccccc2o1 [(6E)-6-[(1,3-benzoxazol-2-ylhydrazo)methylidene]-1-cyclohexa-2,4-dienone] | 3040
Fc1cccc(F)c1C=NNC(=S)Nc1cccnc1 [1-[(2,6-difluorobenzylidene)amino]-3-(3-pyridyl)thiourea] | 5.9

SMILES | EC50 [µM]
Cc1ccc2[nH]c(=O)c(CN(CCc3ccccc3)Cc3nnnn3CC3CCCO3)cc2c1 (centres undefined) [SMR000003177] | 244
CNC(=O)/C(=C\C=C\c1ccccc1)NC(=O)c1ccc([N+](=O)[O-])cc1 [MLS000570424] | 3.2
CCOc1cc(S(=O)(=O)NCc2ccccc2)ccc1F [3-ethoxy-4-fluoranyl-N-(phenylmethyl)benzenesulfonamide] | 4.68
Cc1ccc(/C=C2\SC(=S)N(c3c(C)n(C)n(-c4ccccc4)c3=O)C2=O)cc1 [3-(1,5-dimethyl-3-oxo-2-phenyl-2,3-dihydro-1H-pyrazol-4-yl)-5-(4-methylbenzylidene)-2-thioxo-1,3-thiazolidin-4-one] | 1.18
COc1cc(C=NN(C)c2ccccc2)ccc1O | 10100
O=C(CSc1ccccc1C(=O)NCc1ccccc1)NC12CC3CC(CC(C3)C1)C2 | 5.21
O=C(C[n+]1ccccc1)c1ccc(-c2ccccc2)cc1 [1-(4-phenylphenyl)-2-(1-pyridin-1-iumyl)ethanone;bromide] | 43.6
O=C(CN(c1ccc2c(c1)OCCO2)S(=O)(=O)c1ccccc1)N1CCN(Cc2ccccc2)CC1 [MLS000693333] | 2.43
O=C(Cn1nc(-c2ccccc2)ccc1=O)NCc1ccc2c(c1)OCO2 [2-(6-keto-3-phenyl-pyridazin-1-yl)-N-piperonyl-acetamide] | 1.33
c1ccc(-n2cnc3cc(NCc4ccncc4)ccc32)cc1 [(1-phenylbenzimidazol-5-yl)-(4-pyridylmethyl)amine] | 5.54
Cc1onc(-c2ccccc2Cl)c1C(=O)NC(=S)Nc1ccc(C(C)C)cc1 [3-(2-chlorophenyl)-5-methyl-N-(p-cumenylthiocarbamoyl)isoxazole-4-carboxamide] | 0.291
COc1cccc(CNC(=O)CSc2ccc(-c3cccs3)nn2)c1 [MLS000621194] | 34.2
O=C(CSc1ccc(-c2cccs2)nn1)Nc1ccccc1F [MLS000621184] | 2.19
S=C(NCc1cccnc1)Nc1ccc(Oc2ccccc2)cc1 [1-(4-phenoxyphenyl)-3-(3-pyridinylmethyl)thiourea] | 5.3
Cc1ccc(NC(=O)c2ccccc2NS(=O)(=O)c2ccc(Cl)s2)cc1 [2-[(5-chloranylthiophen-2-yl)sulfonylamino]-N-(4-methylphenyl)benzamide] | 1.64
Cn1c(SCc2ccccc2Cl)nc2ccccc21 [2-[(2-chlorobenzyl)thio]-1-methyl-1H-benzimidazole] | 3.96
O=C(CSc1nccc(=O)[nH]1)N1CCc2ccccc2C1 [SMR000124078] | 9.12
O=C(CSc1nnc(-c2ccc(O)cc2)n1Cc1ccco1)N1CCc2ccccc2C1 [1-(3,4-Dihydro-1H-isoquinolin-2-yl)-2-[4-furan-2-ylmethyl-5-(4-hydroxy-phenyl)-4H-[1,2,4]triazol-3-ylsulfanyl]-ethanone] | 15.3
CC(C)(CN=C(S)NCCc1ccccc1)CN=C(S)NCCc1ccccc1 [1-[2,2-dimethyl-3-(2-phenylethylcarbamothioylamino)propyl]-3-(2-phenylethyl)thiourea] | 0.929
COC(=O)c1sccc1NC(=S)OC [3-(methoxycarbothioylamino)thiophene-2-carboxylic acid methyl ester] | 3.94
CCCC1=NN2C(=N)/C(=C\c3cc(C)n(-c4cc(C)cc(C)c4)c3C)C(=O)N=C2S1 [MLS000588586] | 7.66

same assay, conditions: inactive by the depositor's call

SMILES | EC50 [µM]
COc1ccc(CN(C(=O)c2ccc(-c3ccccc3)[nH]2)C(C(=O)NC(C)(C)C)c2ccncc2)cc1 (centres undefined) [SMR000279859] | 34.4
O=C(NC(=S)Nc1ccc2c(c1)OCO2)c1ccc(Cl)cc1 [1-Benzo[1,3]dioxol-5-yl-3-(4-chloro-benzoyl)-thiourea] | 0.0741
CC1=NN(C(=O)c2ccc(Br)cc2)C(O)(C(F)(F)OC(F)(F)F)C1 (centres undefined) [[5-[bis(fluoranyl)-(trifluoromethyloxy)methyl]-3-methyl-5-oxidanyl-4H-pyrazol-1-yl]-(4-bromophenyl)methanone] | 6.18
CCOc1ccc(Nc2nnc(S)s2)cc1 [5-(4-ethoxyanilino)-3H-1,3,4-thiadiazole-2-thione] | 0.0465
CN(CC(=O)N1CC(=O)N(CCc2ccccc2)C(=O)C1)S(=O)(=O)c1cccc2nsnc12 [MLS000095099] | 2270
O=C(NCCSCc1ccccc1)c1cc(S(=O)(=O)N2CCOCC2)ccc1F [2-fluoranyl-5-morpholin-4-ylsulfonyl-N-[2-(phenylmethylsulfanyl)ethyl]benzamide] | 24.7
